The target in the test is T1, STAT6 (Homo sapiens, UniProt P42226).
T1 construct: stably transfected HaCaT keratinocyte cell line, which expresses NanoLuc luciferase reporter gene under the transcriptional control of the STAT6 responsive promoter; endogenous in cells; host or cells: HaCaT keratinocyte reporter cell line (stably transfected with a NanoLuc reporter)
T1 sequence (P42226 1-847): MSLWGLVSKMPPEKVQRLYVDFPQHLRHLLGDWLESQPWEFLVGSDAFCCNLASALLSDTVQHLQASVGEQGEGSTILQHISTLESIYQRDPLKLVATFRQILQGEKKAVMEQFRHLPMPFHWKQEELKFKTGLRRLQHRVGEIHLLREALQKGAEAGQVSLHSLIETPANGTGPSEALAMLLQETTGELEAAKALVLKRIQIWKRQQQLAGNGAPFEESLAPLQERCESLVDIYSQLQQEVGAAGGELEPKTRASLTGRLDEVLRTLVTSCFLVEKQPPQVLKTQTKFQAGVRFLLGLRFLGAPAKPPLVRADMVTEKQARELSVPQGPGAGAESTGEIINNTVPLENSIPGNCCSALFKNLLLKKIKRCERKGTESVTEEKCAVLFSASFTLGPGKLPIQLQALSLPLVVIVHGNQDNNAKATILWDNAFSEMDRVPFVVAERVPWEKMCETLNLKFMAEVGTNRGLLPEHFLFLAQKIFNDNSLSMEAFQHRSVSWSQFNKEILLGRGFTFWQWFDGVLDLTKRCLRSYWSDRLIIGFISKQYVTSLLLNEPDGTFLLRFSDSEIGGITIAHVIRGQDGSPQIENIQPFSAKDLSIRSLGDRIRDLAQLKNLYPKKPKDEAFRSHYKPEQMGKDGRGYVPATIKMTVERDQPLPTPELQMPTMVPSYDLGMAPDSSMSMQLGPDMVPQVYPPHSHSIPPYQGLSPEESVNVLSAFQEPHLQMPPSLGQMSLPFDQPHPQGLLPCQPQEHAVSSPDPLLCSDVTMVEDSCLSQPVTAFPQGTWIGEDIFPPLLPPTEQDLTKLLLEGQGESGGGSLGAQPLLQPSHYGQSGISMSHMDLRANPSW
Kind of test: STAT6 Reporter Luciferase Assay (IL-13 stimulated HaCaT keratinocyte NanoLuc reporter cells). The class given is cell-based. The conditions noted are these: IL-13 stimulated HaCaT STAT6 NanoLuc reporter cells; read-out: Reporter EC50. The method, boiled down: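 IL-13 (0.12 nM, 4 h) stimulated STAT6 reporter activity in HaCaT cells after a 2 h compound pre-incubation; NanoLuc signal was measured.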
The EC50 is the midpoint of the concentration-response curve. Regarding `CC(C)n1nc(C(=O)NCc2ccc(NC(=O)N(C)C)cc2)c2c1CCN(c1ccc(C(=O)N3CCc4cncnc4C3)cn1)C2` [Example 433, N-(4-(3,3-dimethylureido)benzyl)-1-isopropyl-5-(5-(5,6,7,8-tetrahydropyrido[3,4-d]pyrimidine-7-carbonyl)pyridin-2-yl)-4,5,6,7-tetrahydro-1H-pyrazolo[4,3-c]pyridine-3-carboxamide], the EC50 amounted to 276 nM.

For the compound `CC(C)n1nc(C(=O)NCc2ccc(NC(=O)N(C)C)cc2)c2c1CCN(c1ccc(C(=O)N3CCc4cnccc4C3)cn1)C2` [Example 434, N-(4-(3,3-dimethylureido)benzyl)-1-isopropyl-5-(5-(1,2,3,4-tetrahydro-2,6-naphthyridine-2-carbonyl)pyridin-2-yl)-4,5,6,7-tetrahydro-1H-pyrazolo[4,3-c]pyridine-3-carboxamide], the EC50 stood at 82 nM.

With `CC(C)n1nc(C(=O)NCc2ccc(NC(=O)N(C)C)cc2)c2c1CCN(c1ccc(C(=O)N3CCc4ccccc4C3)cn1)C2` [Example 435, N-(4-(3,3-dimethylureido)benzyl)-1-isopropyl-5-(5-(1,2,3,4-tetrahydroisoquinoline-2-carbonyl)pyridin-2-yl)-4,5,6,7-tetrahydro-1H-pyrazolo[4,3-c]pyridine-3-carboxamide], the EC50 came out at 10 nM.

`CC(C)n1nc(C(=O)NCc2ccc(NC(=O)N(C)C)cc2)c2c1CCN(c1ccc(C(=O)N3CCc4cc(C#N)ccc4C3)cn1)C2` [Example 436, 5-(5-(6-cyano-1,2,3,4-tetrahydroisoquinoline-2-carbonyl)pyridin-2-yl)-N-(4-(3,3-dimethylureido)benzyl)-1-isopropyl-4,5,6,7-tetrahydro-1H-pyrazolo[4,3-c]pyridine-3-carboxamide]: the EC50 came to 22 nM.

In the case of `CC(C)n1nc(C(=O)NCc2ccc(NC(=O)N(C)C)cc2)c2c1CCN(c1ccc(C(=O)N3CCn4cncc4C3)cn1)C2` [Example 438, N-(4-(3,3-dimethylureido)benzyl)-1-isopropyl-5-(5-(5,6,7,8-tetrahydroimidazo[1,5-a]pyrazine-7-carbonyl)pyridin-2-yl)-4,5,6,7-tetrahydro-1H-pyrazolo[4,3-c]pyridine-3-carboxamide], the EC50 is 105 nM.

In the case of `CC(C)n1nc(C(=O)NCc2ccc(NC(=O)N(C)C)cc2)c2c1CCN(c1ccc(C(=O)N3CCn4c(cccc4=O)C3)cn1)C2` [Example 439, N-(4-(3,3-dimethylureido)benzyl)-1-isopropyl-5-(5-(6-oxo-1,3,4,6-tetrahydro-2H-pyrido[1,2-a]pyrazine-2-carbonyl)pyridin-2-yl)-4,5,6,7-tetrahydro-1H-pyrazolo[4,3-c]pyridine-3-carboxamide], the 50% effective concentration (EC50) is 88 nM.

Take `Cc1cc2c(cn1)CN(C(=O)c1ccc(N3CCc4c(c(C(=O)NCc5ccc(NC(=O)N(C)C)cc5)nn4C(C)C)C3)nc1)C2` [Example 440, N-(4-(3,3-dimethylureido)benzyl)-1-isopropyl-5-(5-(6-methyl-2,3-dihydro-1H-pyrrolo[3,4-c]pyridine-2-carbonyl)pyridin-2-yl)-4,5,6,7-tetrahydro-1H-pyrazolo[4,3-c]pyridine-3-carboxamide]: the concentration for a half-maximal effect (EC50) stood at 16 nM.

For the compound `Cc1cccc2c1CN(C(=O)c1ccc(N3CCc4c(c(C(=O)NCc5ccc(NC(=O)N(C)C)cc5)nn4C(C)C)C3)nc1)C2` [Example 441, N-(4-(3,3-dimethylureido)benzyl)-1-isopropyl-5-(5-(4-methylisoindoline-2-carbonyl)pyridin-2-yl)-4,5,6,7-tetrahydro-1H-pyrazolo[4,3-c]pyridine-3-carboxamide], the EC50 is 2 nM.

Take `CC(C)n1nc(C(=O)NCc2ccc(NC(=O)N(C)C)cc2)c2c1CCN(c1ccc(C(=O)N3Cc4ccccc4C3)cn1)C2` [Example 442, N-(4-(3,3-dimethylureido)benzyl)-5-(5-(isoindoline-2-carbonyl)pyridin-2-yl)-1-isopropyl-4,5,6,7-tetrahydro-1H-pyrazolo[4,3-c]pyridine-3-carboxamide]: the EC50 was determined as 2 nM.

Take `Cc1nnn2c1CN(C(=O)c1ccc(N3CCc4c(c(C(=O)NCc5ccc(NC(=O)N(C)C)cc5)nn4C(C)C)C3)nc1)CC2` [Example 455, N-(4-(3,3-dimethylureido)benzyl)-1-isopropyl-5-(5-(3-methyl-4,5,6,7-tetrahydro-[1,2,3]triazolo[1,5-a]pyrazine-5-carbonyl)pyridin-2-yl)-4,5,6,7-tetrahydro-1H-pyrazolo[4,3-c]pyridine-3-carboxamide]: the EC50 was 311 nM.

On to `CCS(=O)(=O)N1CCN(C(=O)c2ccc(N3CCc4c(c(C(=O)NCc5ccc(NC(=O)N(C)C)cc5)nn4C(C)C)C3)nc2)CC1` [Example 563, N-(4-(3,3-dimethylureido)benzyl)-5-(5-(4-(ethylsulfonyl)piperazine-1-carbonyl)pyridin-2-yl)-1-isopropyl-4,5,6,7-tetrahydro-1H-pyrazolo[4,3-c]pyridine-3-carboxamide], for which the EC50 was determined as 202 nM.

As to `CC(C)n1nc(C(=O)NCc2ccc(NC(=O)N(C)C)cc2)c2c1CCN(c1ccc(C(=O)N3CCC4(CCC(=O)N4C)CC3)cn1)C2` [Example 564, N-(4-(3,3-dimethylureido)benzyl)-1-isopropyl-5-(5-(1-methyl-2-oxo-1,8-diazaspiro[4.5]decane-8-carbonyl)pyridin-2-yl)-4,5,6,7-tetrahydro-1H-pyrazolo[4,3-c]pyridine-3-carboxamide], the EC50 was 223 nM.

As for `COCCN1CCC(CN(C)C(=O)c2ccc(N3Cc4c(C(=O)NCc5ccc(NC(=O)N(C)C)cc5)nn(C(C)C)c4[C@@H](C)C3)cc2)CC1` [Example 565, (S)-N-(4-(3,3-dimethylureido)benzyl)-1-isopropyl-5-(4-(((1-(2-methoxyethyl)piperidin-4-yl)methyl)(methyl)carbamoyl)phenyl)-7-methyl-4,5,6,7-tetrahydro-1H-pyrazolo[4,3-c]pyridine-3-carboxamide], the EC50 came to 5 nM.

As for `Cc1nn(C)c(=O)n1-c1ccc(N2Cc3c(C(=O)NCc4ccc(NC(=O)N5CCN(C)CC5)cc4)nn(C(C)C)c3[C@@H](C)C2)nc1` [Example 613, (S)-5-(5-(1,3-dimethyl-5-oxo-1,5-dihydro-4H-1,2,4-triazol-4-yl)pyridin-2-yl)-1-isopropyl-7-methyl-N-(4-(4-methylpiperazine-1-carboxamido)benzyl)-4,5,6,7-tetrahydro-1H-pyrazolo[4,3-c]pyridine-3-carboxamide], the EC50 came out at 3 nM.

As to `CC(C)n1nc(C(=O)NCc2ccc(NC(=O)N3CCN4CCCC[C@H]4C3)c(F)c2)c2c1[C@@H](C)CN(c1ccc(C(=O)N(C)C)cc1)C2` [Example 640, (S)-N-(4-(((S)-5-(4-(dimethylcarbamoyl)phenyl)-1-isopropyl-7-methyl-4,5,6,7-tetrahydro-1H-pyrazolo[4,3-c]pyridine-3-carboxamido)methyl)-2-fluorophenyl)octahydro-2H-pyrido[1,2-a]lpyrazine-2-carboxamide], the concentration giving a half-maximal response (EC50) is 1 nM.

As to `CC(C)n1nc(C(=O)NCc2ccc(NC(=O)N3CC4(CN(C)C4)C3)c(F)c2)c2c1[C@@H](C)CN(c1ccc(C(=O)N(C)C)cc1)C2` [Example 641, (S)-5-(4-(dimethylcarbamoyl)phenyl)-N-(3-fluoro-4-(6-methyl-2,6-diazaspiro[3.3]heptane-2-carboxamido)benzyl)-1-isopropyl-7-methyl-4,5,6,7-tetrahydro-1H-pyrazolo[4,3-c]pyridine-3-carboxamide], the half-maximal effective concentration (EC50) is 5 nM.

With `CC(C)n1nc(C(=O)NCc2ccc(NC(=O)N3CCC4(CCN(C)C4)CC3)c(F)c2)c2c1[C@@H](C)CN(c1ccc(C(=O)N(C)C)cc1)C2` [Example 642, (S)-N-(4-((5-(4-(dimethylcarbamoyl)phenyl)-1-isopropyl-7-methyl-4,5,6,7-tetrahydro-1H-pyrazolo[4,3-c]pyridine-3-carboxamido)methyl)-2-fluorophenyl)-2-methyl-2,8-diazaspiro[4.5]decane-8-carboxamide], the EC50 is 1 nM.

For `CC(C)n1nc(C(=O)NCc2ccc(NC(=O)N3CCC4(CC3)CN(C)CCO4)c(F)c2)c2c1[C@@H](C)CN(c1ccc(C(=O)N(C)C)cc1)C2` [Example 643, (S)-N-(4-((5-(4-(dimethylcarbamoyl)phenyl)-1-isopropyl-7-methyl-4,5,6,7-tetrahydro-1H-pyrazolo[4,3-c]pyridine-3-carboxamido)methyl)-2-fluorophenyl)-4-methyl-1-oxa-4,9-diazaspiro[5.5]undecane-9-carboxamide], the EC50 was 1 nM.

Source of the values: patent US20250320213A1, “Nitrogen-Containing Heterocyclic Compounds” (Pfizer Inc., priority 2024, published 2025).
